Assay [1] has as its system A375, human melanoma. Kind of assay: MTT cell viability, A375. In kind it is cell-based. The settings on record: 48 h, MTT or CV. The method, then:
Both melanoma and colon cancer are tumor types tightly connected with inflammation, while the expression of COX-2 in the selected cell lines was highly variable. Since a lot of discrepancies were found in the literature concerning the expression of this enzyme[5],[48]–[53], both COX-1 and COX-2 expression was analyzed by Western blot. […] The cells were treated with a wide range of doses of 4a–c, 5, and 6 for 48 h and cell viability was determined by MTT (3-(4,5-dimethylthiazol-2-yl)-2,5-diphenyltetrazolium bromide) and CV (crystal violet) assays. The obtained IC50 values were similar for both assays (Table 1).
Reagents were obtained from Sigma (St. Louis, MO) unless indicated otherwise. Annexin V - FITC (AnnV) was acquired from Biotium (Hayward, CA) and Apostat from R&D (R&D S ystems, Minneapolis, MN USA). […] After being detached b y tr ypsinization, cells were seeded in defined number as follows: 2.5 × 10^3 cells/well in 96-well plates for viability assessment and 2 × 10^4 cells/well in 24-well plates for flow cytometry. […]
Committee at IBISS (02- 09/1 6). Cells were counted and seeded in 96-well plates and incubat ed overnight. Before treatment, non- adherent cells were removed. Compounds 4a- c, 5 and 6 were dissolved in DMSO and stored at −20 °C for a m onth. Working solutions were freshl y prepared in 10% FCS-RPMI-1640. Controls were treated with culture medium containing the equivalent […]
3.2. Cell viability tests.
The number of viable cel ls in culture was estimated by the MTT (3-(4,5- dimethylthiazol- 2-yl ) - 2,5- diphenyltetrazolium bromide) and CV (crystal violet) tests. Cells were incubated in the presence of compounds 4a- c, 5 and 6 for 48 h, then the viability was measured as described.4 […]
The results were ex pressed as a p er centage of a v alue obtained for the untr eated control cells that was arbitrarily set to be 100%. A non- linear regression analysis of obtained results was done b y using Gr aphPad Prism software to calculat e IC50 values. […]

Assay [2] concerns COX-2-overexpressing (HCA-7) human colon cancer cell line. The note with it: cited from earlier work.
Assay [3] concerns COX-2-negative (HCT-116) human colon cancer cell line. The settings on record: cited from earlier work.

Structures are written as SMILES.

Consider `CS(=O)(=O)c1ccc(C2=C(c3ccccc3)C(=O)OC2)cc1` [Rofecoxib], for which the “viability of A375 cells” value in assay [1] is on record as “did not result in significantly decreased viability”. For the same compound, the “activity against HCA-7” value in assay [2] was “inactive”. Besides, in assay [3], the “activity against HCT-116” value was “inactive”.

(Values after article PMC7076013 (Scientific Reports, 2020).)
